Measured values as given in publication PMC2063130, “Reversal of P-glycoprotein-mediated multidrug resistance by XR9051, a novel diketopiperazine derivative” (British Journal of Cancer, 1998).

Tests used:
P-glycoprotein [1] = target: T1, P-glycoprotein (Cricetulus griseus, UniProt P21448); experiment: displacement of [3H]vinblastine equilibrium binding, rapid filtration; conditions: read-out: EC50 (the source's name)
T1 construct: gene ABCB1; CHrB30 plasma membranes

P-glycoprotein [2] = target: T1, P-glycoprotein; experiment: radioligand filtration binding; no specific binding in parental AuxB1 membranes (Kd […] is quoted from earlier work)

T1 sequence (P21448 whole entry): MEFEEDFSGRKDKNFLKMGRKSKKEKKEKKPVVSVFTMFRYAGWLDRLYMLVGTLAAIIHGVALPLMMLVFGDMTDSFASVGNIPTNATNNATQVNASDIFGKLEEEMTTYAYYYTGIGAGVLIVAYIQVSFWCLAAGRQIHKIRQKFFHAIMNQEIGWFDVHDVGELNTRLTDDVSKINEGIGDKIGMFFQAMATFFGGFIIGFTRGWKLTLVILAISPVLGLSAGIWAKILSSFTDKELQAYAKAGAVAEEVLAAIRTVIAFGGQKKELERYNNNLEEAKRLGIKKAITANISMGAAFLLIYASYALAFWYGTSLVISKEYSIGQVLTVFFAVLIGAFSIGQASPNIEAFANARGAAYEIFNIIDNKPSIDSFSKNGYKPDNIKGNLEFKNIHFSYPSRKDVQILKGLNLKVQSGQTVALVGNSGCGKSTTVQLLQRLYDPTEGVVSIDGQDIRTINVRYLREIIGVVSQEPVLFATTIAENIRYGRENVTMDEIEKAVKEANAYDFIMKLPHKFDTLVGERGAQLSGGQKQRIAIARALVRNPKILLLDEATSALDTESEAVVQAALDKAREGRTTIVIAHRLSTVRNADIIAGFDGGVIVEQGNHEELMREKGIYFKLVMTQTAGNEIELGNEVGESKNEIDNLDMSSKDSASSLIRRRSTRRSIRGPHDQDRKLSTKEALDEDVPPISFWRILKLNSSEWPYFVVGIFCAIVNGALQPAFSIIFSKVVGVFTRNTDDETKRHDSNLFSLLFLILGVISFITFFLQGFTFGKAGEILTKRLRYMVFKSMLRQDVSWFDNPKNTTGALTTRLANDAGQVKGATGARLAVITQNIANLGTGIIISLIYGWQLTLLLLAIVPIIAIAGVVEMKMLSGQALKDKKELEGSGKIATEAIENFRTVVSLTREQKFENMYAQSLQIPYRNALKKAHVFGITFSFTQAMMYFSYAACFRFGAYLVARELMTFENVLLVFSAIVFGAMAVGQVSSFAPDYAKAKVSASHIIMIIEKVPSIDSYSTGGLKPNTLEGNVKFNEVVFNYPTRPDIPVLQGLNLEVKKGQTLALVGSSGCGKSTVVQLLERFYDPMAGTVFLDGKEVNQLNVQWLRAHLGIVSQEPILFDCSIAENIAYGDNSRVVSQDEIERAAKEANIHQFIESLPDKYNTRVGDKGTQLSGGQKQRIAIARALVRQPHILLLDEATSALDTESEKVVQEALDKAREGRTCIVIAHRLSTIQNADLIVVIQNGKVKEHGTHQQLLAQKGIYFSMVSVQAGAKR

| IC50 (P-glycoprotein [1]) | Structure (SMILES) | radioligand filtration binding; no specific binding in parental AuxB1 membranes (P-glycoprotein [2]) |
| --- | --- | --- |
| 1.4 nM | COc1cc2c(cc1OC)CN(CCc1ccc(NC(=O)c3cccc(/C=c4\[nH]c(=O)/c(=C/c5ccccc5)n(C)c4=O)c3)cc1)CC2 [XR9051, N-(4-(2-(6,7-Dimethoxy-1,2,3,4-tetrahydro-2-isoquinolyl)ethyl)phenyl)-3-((3Z,6Z)-6-benzylidene-1-methyl-2,5-dioxo-3-piperazinylidene) methylbenzamide] |  |
|  | CC[C@]1(O)C[C@@H]2CN(CCc3c([nH]c4ccccc34)[C@@](C(=O)OC)(c3cc4c(cc3OC)N(C)[C@H]3[C@@](O)(C(=O)OC)[C@H](OC(C)=O)[C@]5(CC)C=CCN6CC[C@]43[C@@H]65)C2)C1 [vinblastine] | A rapid filtration assay was used to determine the equilibrium |
